Test [1] deals with Human venous whole blood (IFN-γ). Kind of test: Human whole blood IFN-γ assay. The class given is cell-based. As for the experimental part:
Assay 10: Human Whole Blood IFN-γ Assay
Human venous whole blood (22.5 μL per well), obtained from healthy donors, was pre-treated with compounds for one hour at 37° C. in a humidified 95% air/5% CO2 incubator. The blood was stimulated with 2.5 μL anti-human CD3 and anti-CD28 mAb at a final concentration of 1 μg/mL each for 24 hours at 37° C. IFN-γ in the supernatants was measured using AlphLISA kit (Cat #AL217).

Test [2] concerns human venous whole blood, CD8 positive population (pERK). Kind of test: DGK human whole blood pERK assay. The format is cell-based. Particulars: for IC50: read-out: DGK HWB pERK IC50; for EC50: human whole blood pERK, read-out: DGK HWB. The method, boiled down: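 Read-out is the pERK-positive fraction of CD8+ cells measured by flow cytometry. Donor venous blood (heparin) saw compound for one hour at 37° C before a 15-minute anti-CD3 challenge (1 μg/mL final) with cross-linking anti-mouse IgG.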

A further test has as its target DGKα (Homo sapiens (Human), UniProt P23743). Kind of test: biochemical. Conditions: read-out: DGKα LIPGLO IC50. The class given is biochemical.
For a further test, the target named is human DGKζ (Homo sapiens (Human), UniProt Q13574). Kind of test: biochemical. The class given is biochemical. Particulars: Table A; liposome (LIPGLO) assay; read-out: DGKζ.
Where [3] appears, read: Homo sapiens, 24 h, human whole blood, anti-CD3 plus anti-CD28, 24 hours, read-out: INFg Whole Blood Normalized Agonist EC50.
Where [4] appears, read: human whole blood, CD8 positive population.
The mark [5] stands for this setting: human whole blood IFN-γ, read-out: INFg Whole Blood.
Setting [6] is: human whole blood, anti-CD3 plus anti-CD28, 24 hours, read-out: INFg Whole Blood Normalized Agonist EC50.
The mark [7] stands for this setting: Homo sapiens, human whole blood IFN-γ, read-out: INFg Whole Blood.

Molecules are shown by their SMILES. Where two headings read alike, the source gives them in different places.

Sequence of DGKα (P23743 whole entry, looked up): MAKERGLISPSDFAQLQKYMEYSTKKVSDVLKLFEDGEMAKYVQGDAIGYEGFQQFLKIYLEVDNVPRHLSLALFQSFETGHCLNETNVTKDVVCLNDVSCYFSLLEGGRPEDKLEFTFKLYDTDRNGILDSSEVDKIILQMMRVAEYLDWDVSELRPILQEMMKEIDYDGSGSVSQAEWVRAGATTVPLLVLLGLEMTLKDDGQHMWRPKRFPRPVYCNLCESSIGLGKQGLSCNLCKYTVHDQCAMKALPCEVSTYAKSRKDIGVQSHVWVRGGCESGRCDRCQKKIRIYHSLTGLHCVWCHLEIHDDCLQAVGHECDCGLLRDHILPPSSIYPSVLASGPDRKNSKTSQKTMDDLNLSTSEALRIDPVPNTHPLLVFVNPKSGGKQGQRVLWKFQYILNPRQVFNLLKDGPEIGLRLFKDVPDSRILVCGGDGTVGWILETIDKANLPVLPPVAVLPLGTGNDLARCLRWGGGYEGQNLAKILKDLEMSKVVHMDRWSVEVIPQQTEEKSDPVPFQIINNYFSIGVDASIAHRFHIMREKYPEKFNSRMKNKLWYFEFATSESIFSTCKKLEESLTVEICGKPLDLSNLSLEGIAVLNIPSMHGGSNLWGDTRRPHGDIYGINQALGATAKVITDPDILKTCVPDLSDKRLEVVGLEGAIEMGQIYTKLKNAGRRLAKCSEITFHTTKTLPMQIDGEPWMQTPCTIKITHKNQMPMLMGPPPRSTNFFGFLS
Sequence of human DGKζ (Q13574 whole entry, looked up): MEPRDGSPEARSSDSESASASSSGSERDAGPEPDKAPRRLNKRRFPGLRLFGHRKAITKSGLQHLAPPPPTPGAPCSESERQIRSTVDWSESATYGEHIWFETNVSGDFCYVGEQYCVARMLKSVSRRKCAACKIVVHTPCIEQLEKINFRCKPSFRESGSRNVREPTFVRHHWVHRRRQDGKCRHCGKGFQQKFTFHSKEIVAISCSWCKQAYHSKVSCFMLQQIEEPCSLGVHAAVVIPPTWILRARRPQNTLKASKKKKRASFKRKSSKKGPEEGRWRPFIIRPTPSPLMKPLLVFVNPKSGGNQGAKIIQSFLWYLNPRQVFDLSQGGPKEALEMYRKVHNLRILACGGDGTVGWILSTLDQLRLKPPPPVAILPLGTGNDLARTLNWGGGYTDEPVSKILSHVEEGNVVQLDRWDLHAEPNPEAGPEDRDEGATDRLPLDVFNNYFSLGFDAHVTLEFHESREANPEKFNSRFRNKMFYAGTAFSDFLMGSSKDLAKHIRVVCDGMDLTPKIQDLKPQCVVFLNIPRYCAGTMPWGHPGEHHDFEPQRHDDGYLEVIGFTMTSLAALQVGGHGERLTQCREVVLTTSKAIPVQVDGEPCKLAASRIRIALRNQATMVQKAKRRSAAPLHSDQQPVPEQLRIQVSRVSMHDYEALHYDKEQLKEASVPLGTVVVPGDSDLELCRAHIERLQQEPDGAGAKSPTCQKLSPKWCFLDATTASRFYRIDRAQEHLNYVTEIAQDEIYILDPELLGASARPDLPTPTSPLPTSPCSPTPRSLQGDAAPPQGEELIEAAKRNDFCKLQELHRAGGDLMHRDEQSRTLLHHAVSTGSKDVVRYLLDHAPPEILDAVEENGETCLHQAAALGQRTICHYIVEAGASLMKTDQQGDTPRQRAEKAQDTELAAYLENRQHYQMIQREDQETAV

As to `C[C@@H]1CN(c2cc(=O)n(C)c3ccc(C#N)nc23)CC[C@H]1Oc1ccc(C(F)(F)F)cc1` (racemic) [Example 97, 5-methyl-8-((3R,4R)-3-methyl-4-(4-(trifluoromethyl)phenoxy)piperidin-1-yl)-6-oxo-5,6-dihydro-1,5-naphthyridine-2-carbonitrile], the EC50 in test [1] (setting [3]) was found to be 1.9 µM. Also, in test [2] (setting [4]), the IC50 came out at 3 µM.

`CC(C)c1ccc(O[C@H]2CCN(c3cc(=O)n(C)c4ccc(C#N)nc34)C[C@H]2C)nc1` (single isomer, unassigned) [Example 206]: the EC50 is 0.41 µM in test [1] (setting [5]) and 3.6 µM in test [2].

As to `CC[C@@H]1CN(c2cc(=O)n(C)c3ccc(C#N)nc23)CC[C@@H]1Oc1cccc(C(C)C)c1` [Example 164, 8-((3R,4S)-3-ethyl-4-(3-isopropylphenoxy)piperidin-1-yl)-5-methyl-6-oxo-5,6-dihydro-1,5-naphthyridine-2-carbonitrile], the EC50 in test [1] (Homo sapiens, 24 h, read-out: INFg Whole Blood Normalized Agonist EC50, human whole blood, anti-CD3 plus anti-CD28, 24 hours) is 0.79 µM. Moreover, the IC50 in test [2] (Homo sapiens, CD8 positive) was 5.1 µM.

Regarding `C[C@@H]1CN(c2cc(=O)n(C)c3ccc(C#N)nc23)CC[C@H]1Oc1ccc(OC(C)(C)C)cc1` [Example 86, 8-((3R,4R)-4-(4-(tert-butoxy)phenoxy)-3-methylpiperidin-1-yl)-5-methyl-6-oxo-5,6-dihydro-1,5-naphthyridine-2-carbonitrile], on DGKα, the IC50 came to 0.72 µM. The EC50 in test [1] (setting [6]) came to 0.69 µM.

For the compound `C[C@@H]1CN(c2cc(=O)n(C)c3ccc(C#N)nc23)CC[C@@H]1Oc1ccc(OC(C)(C)C)cc1` (single isomer, unassigned) [Example 174], the IC50 on DGKα came to 1.6 µM. For the same compound, the EC50 in test [1] (setting [6]) worked out at 3.6 µM.

`C[C@@H]1CN(c2cc(=O)n(C)c3ccc(C#N)nc23)CC[C@@H]1Oc1ccc(C(F)(F)F)cc1` (single isomer, unassigned) [Example 187, 5-methyl-8-(cis-3-methyl-4-(4-(trifluoromethyl)phenoxy)piperidin-1-yl)-6-oxo-5,6-dihydro-1,5-naphthyridine-2-carbonitrile (rel)]: the EC50 in test [1] (setting [5]) came out at 1.7 µM; in test [2] (Homo sapiens, CD8 positive), 1.8 µM.

With `CC[C@@H]1CN(c2cc(=O)n(C)c3ccc(C#N)nc23)CC[C@H]1Oc1ccc(OC(C)C)cn1` (single isomer, unassigned) [Example 194], at human DGKζ, the IC50 is 1.8 µM. The EC50 in test [1] (setting [5]) amounted to 1.8 µM; in test [2], 3 µM.

Regarding `C[C@@H]1CN(c2cc(=O)n(C)c3ccc(C#N)nc23)CC[C@@H]1Oc1ccc(C(F)F)cn1` (single isomer, unassigned) [Example 210], the EC50 in test [1] (setting [5]) came to 1.2 µM; in test [2] it was 13 µM.

As to `C[C@@H]1CN(c2cc(=O)n(C)c3ccc(C#N)nc23)CC[C@@H]1Oc1ccc(OC(C)(C)C)cc1` [Example 172, 8-((3R,4S)-4-(4-(tert-butoxy)phenoxy)-3-methylpiperidin-1-yl)-5-methyl-6-oxo-5,6-dihydro-1,5-naphthyridine-2-carbonitrile], on DGKα, the IC50 came out at 0.62 µM. Further, the EC50 in test [1] (setting [3]) was 1.5 µM.

Turning to `CC[C@@H]1CN(c2cc(=O)n(C)c3ccc(C#N)nc23)CC[C@H]1Oc1ccc(C(C)C)cc1` (single isomer, unassigned) [Example 144], the EC50 in test [1] (setting [6]) amounted to 0.8 µM. Moreover, the IC50 in test [2] (setting [4]) turned out to be 0.88 µM.

In the case of `CC[C@@H]1CN(c2cc(=O)n(C)c3ccc(C#N)nc23)CC[C@H]1Oc1ccc(C(F)(F)F)cc1` (single isomer, unassigned) [Example 147], the EC50 in test [1] (setting [6]) amounted to 1.2 µM. The IC50 in test [2] (setting [4]) stood at 0.61 µM.

On to `CC(C)Oc1ccc(O[C@@H]2CCN(c3cc(=O)n(C)c4ccc(C#N)nc34)C[C@H]2C)nc1` (single isomer, unassigned) [Example 200], for which the EC50 amounted to 1.5 µM in test [1] (setting [7]) and 3.3 µM in test [2] (Homo sapiens, CD8 positive).

`CC[C@@H]1CN(c2cc(=O)n(C)c3ccc(C#N)nc23)CC[C@H]1Oc1cccc(C(F)(F)F)c1` [Example 140, 8-((3R,4R)-3-ethyl-4-(3-(trifluoromethyl)phenoxy)piperidin-1-yl)-5-methyl-6-oxo-5,6-dihydro-1,5-naphthyridine-2-carbonitrile]: the IC50 on DGKα (liposome (LIPGLO) assay) amounted to 0.13 µM. Moreover, the EC50 in test [1] (setting [3]) is 1.2 µM.

Take `CC(C)Oc1ccc(O[C@@H]2CCN(c3cc(=O)n(C)c4ccc(C#N)nc34)C[C@H]2C)nc1` (single isomer, unassigned) [Example 201]: the figures for the EC50 in test [1] (setting [5]) and in test [2] were 0.92 µM and 3.9 µM, respectively.

In the case of `C[C@@H]1CN(c2cc(=O)n(C)c3ccc(C#N)nc23)CC[C@@H]1Oc1ccc(C(F)F)cn1` (single isomer, unassigned) [Example 209], the EC50 was 1.8 µM in test [1] (setting [7]) and 18 µM in test [2] (Homo sapiens, CD8 positive).

With `CC(C)c1ccc(O[C@H]2CCN(c3cc(=O)n(C)c4ccc(C#N)nc34)C[C@H]2C)nc1` (single isomer, unassigned) [Example 207], the results for the EC50 in test [1] (setting [5]) and in test [2] were 1.3 µM and 12 µM, respectively.

As for `CC(C)Oc1ccc(O[C@H]2CCN(c3cc(=O)n(C)c4ccc(C#N)nc34)C[C@H]2C)nc1` (racemic) [Example 228, (+/−) 8-(cis-4-((5-isopropoxypyridin-2-yl)oxy)-3-methylpiperidin-1-yl)-5-methyl-6-oxo-5,6-dihydro-1,5-naphthyridine-2-carbonitrile], the EC50 in test [1] (setting [7]) was 1.1 µM; in test [2] (Homo sapiens, CD8 positive), 1.5 µM.

As for `C[C@@H]1CN(c2cc(=O)n(C)c3ccc(C#N)nc23)CC[C@@H]1Oc1ccc(C(C)(C)C)cc1` (racemic) [Example 175, 8-((3R,4S)-4-(4-(tert-butyl)phenoxy)-3-methylpiperidin-1-yl)-5-methyl-6-oxo-5,6-dihydro-1,5-naphthyridine-2-carbonitrile], in test [1] (setting [3]), the EC50 worked out at 1.4 µM. The IC50 in test [2] (setting [4]) worked out at 0.8 µM.

Take `CC[C@@H]1CN(c2cc(=O)n(C)c3ccc(C#N)nc23)CC[C@H]1Oc1ccc(OC(C)C)cn1` (single isomer, unassigned) [Example 193]: at human DGKζ, the IC50 amounted to 2.2 µM. The EC50 in test [1] (setting [5]) worked out at 0.37 µM; in test [2], 0.4 µM.

Regarding `CCO[C@@H]1CN(c2cc(=O)n(C)c3ccc(C#N)nc23)CC[C@H]1Oc1cccc(C(F)(F)F)c1` [Example 263, 8-((3R,4R)-3-ethoxy-4-(3-(trifluoromethyl)phenoxy)piperidin-1-yl)-5-methyl-6-oxo-5,6-dihydro-1,5-naphthyridine-2-carbonitrile], the EC50 in test [1] (setting [5]) amounted to 0.18 µM; in test [2] (Homo sapiens, CD8 positive), 0.2 µM.

For the compound `CC(C)c1cccc(O[C@H]2CCN(c3cc(=O)n(C)c4ccc(C#N)nc34)C[C@H]2C)n1` (single isomer, unassigned) [Example 216], the EC50 is 1.4 µM in test [1] (setting [5]) and 14 µM in test [2] (Homo sapiens, CD8 positive).

Turning to `Cn1c(=O)cc(N2CCC(Oc3ccc(C(C)(C)C)cc3)CC2)c2cc(C#N)ccc21` [Example 53, 4-(4-(4-(tert-butyl)phenoxy)piperidin-1-yl)-1-methyl-2-oxo-1,2-dihydroquinoline-6-carbonitrile], the EC50 in test [1] (setting [3]) was 1.8 µM. The IC50 in test [2] (setting [4]) worked out at 2.8 µM.

For the compound `C[C@@H]1CN(c2cc(=O)n(C)c3ccc(C#N)nc23)CC[C@H]1Oc1ccc(F)c(F)c1` (single isomer, unassigned) [Example 104], the EC50 in test [1] (setting [3]) was found to be 1.8 µM. In addition, in test [2] (setting [4]), the IC50 worked out at 1.1 µM.

Take `C[C@@H]1CN(c2cc(=O)n(C)c3ccc(C#N)nc23)CC[C@H]1Oc1ccc(F)c(F)c1` (racemic) [Example 103, 8-((3R,4R)-4-(3,4-difluorophenoxy)-3-methylpiperidin-1-yl)-5-methyl-6-oxo-5,6-dihydro-1,5-naphthyridine-2-carbonitrile]: the EC50 in test [1] (setting [3]) amounted to 1.5 µM. Moreover, in test [2] (setting [4]), the IC50 amounted to 5.5 µM.
